Results on 24 compounds are retold here after US8354443B2, “Cyclopropane indolinone derivatives” (Hoffmann-La Roche Inc., priority 2009, dated 2013).

As usually defined, the EC50 is the concentration needed to bring the measured effect to its halfway point.

The assay relates to recombinant AMPK proteins (α1β1γ1, α2β1γ1, α1(1-335), α1(1-394) or α2(1-394)). The assay is described as follows: Scintillation Proximity Assay (AMPK activation). Type of assay: biochemical, human. The following applies: effective concentration of activator for 50% of maximal enzyme activity; 2 hr at 30° C.; AMPK form not specified. An excerpt:
Recombinant human AMPK α1β1γ1, α2β1γ1 or AMPK a subunit truncations α1 (1-335), α1 (1-394) and α2(1-394) were constructed, expressed and purified as described previously (Pang, T., Zhang, Z. S., Gu, M., Qiu, B. Y., Yu, L. F., Cao, P. R., Shao, W., Su, M. B., Li, J. Y., Nan, F. J., and Li, J. (2008) or purchased from Invitrogen (San Diego, Calif., U.S.A.). Rat liver AMPK heterotrimer enzyme was obtained from Upstate (Billerica, Mass., U.S.A.).
Before the Scintillation Proximity Assay (SPA) assay, 200 nM recombinant AMPK proteins (α1β1γ1, α2β1γ1, α1(1-335), α1(1-394) or α2(1-394)) were fully phosphorylated as described previously (Pang et al., 2008). SPA reactions were performed in 96-well plates at a final volume of 50 μl containing 20 mM Tris-HCl pH 7.5, 5 mM MgCl2, 1 mM DTT, 2 μM biotin-SAMS, 2 μM ATP, 0.2 μCi/well [γ-^33P]ATP, and various amount of activator. Reactions were initiated by the addition of 50 nM recombinant AMPK proteins to the reaction solutions and incubated at 30° C. for 2 hr. After that, reactions were terminated by the addition of 40 μl stop solution containing 80 μg streptavidin-coated SPA beads per well, 50 mM EDTA, 0.1% Triton X-100 in PBS, pH 7.5 and incubated for 1 hr. Finally, a 160 μl suspension solution containing 2.4 M CsCl, 50 mM EDTA, and 0.1% Triton X-100 in PBS (pH 7.5) was added to the reaction solution to suspend SPA beads completely. SPA signals were determined with a Wallac MicroBeta plate counter (PerkinElmer) 30 min later for calculation of the amount of product formed. The amount of products formed in 2 hr was plotted against activator concentrations to determine the effective concentration of the activator (EC50) required for 50% of maximal enzyme activity.
`O=C(Nc1cc(C2CC2)n[nH]1)c1cccc(CN2C(=O)[C@]3(C[C@@H]3c3ccc(Cl)cc3)c3ccccc32)c1` (racemic) [Example 116, (1S,2R) and (1R,2S)-3-((2-(4-chlorophenyl)-2′-oxospiro[cyclopropane-1,3′-indoline]-1′-yl)methyl)-N-(3-cyclopropyl-1H-pyrazol-5-yl)benzamide]: the EC50 came to 4.33 µM.
On to `O=C(O)c1cccc(CN2C(=O)[C@@]3(C[C@@H]3c3ccc(Cl)cc3)c3cc(Cl)ccc32)c1` (racemic) [Example 14, (1R,2R) and (1S,2S)-3-((5′-chloro-2-(4-chlorophenyl)-2′-oxospiro[cyclopropane-1,3′-indoline]-1′-yl)methyl)benzoic acid], for which the EC50 stood at 2.03 µM.
`O=C1N(Cc2cccnc2)c2ccccc2[C@@]12C[C@@H]2c1ccc(Cl)cc1` (racemic) [Example 79, (1S,2R) and (2R,1S)-2-(4-chlorophenyl)-1′-(pyridin-3-ylmethyl)spiro[cyclopropane-1,3′-indolin]-2′-one]: the EC50 amounted to 2.6 µM.
For `Cc1cc(NC(=O)c2cccc(CN3C(=O)[C@@]4(C[C@H]4c4ccc(Cl)cc4)c4ccccc43)c2)[nH]n1` (racemic) [Example 67, (1R,2S) and (1S,2R)-3-((2-(4-chlorophenyl)-2′-oxospiro[cyclopropane-1,3′-indoline]-1′-yl)methyl)-N-(3-methyl-1 H-pyrazol-5-yl)benzamide], the EC50 is 2.29 µM.
Under `O=C(O)c1cccc(CN2C(=O)[C@]3(C[C@@H]3c3cccc(F)c3)c3ccccc32)c1` (racemic) [Example 10, (1S,2R) and (1R,2S)-3-((2-(3-fluorophenyl)-2′-oxospiro[cyclopropane-1,3′-indoline]-1′-yl)methyl)benzoic acid] stands 2.02 µM.
`CN(C)CCN1CCN(C(=O)c2cccc(CN3C(=O)[C@@]4(C[C@H]4c4ccc(Cl)cc4)c4ccccc43)c2)CC1` (racemic) [Example 113, (1R,2S) and (1S,2R)-2-(4-chlorophenyl)-1′-(3-(4-(2-(dimethylamino)ethyl)piperazine-1-carbonyl)benzyl)spiro[cyclopropane-1,3′-indolin]-2′-one]: the EC50 worked out at 1.84 µM.
Take `O=C1N(CCNCCN2CCOCC2)c2ccccc2[C@@]12C[C@@H]2c1ccc(Cl)cc1` (racemic) [Example 128, (1S,2R) and (1R,2S)-2-(4-chlorophenyl)-1′-(2-(2-morpholinoethylamino)ethyl) spiro[cyclopropane-1,3′-indolin]-2′-one]: the EC50 came out at 2.04 µM.
In the case of `O=C(c1cccc(CN2C(=O)[C@@]3(C[C@H]3c3ccc(Cl)cc3)c3ccccc32)c1)N1CCN(c2ccncc2)CC1` (racemic) [Example 64, (1R,2S) and (1S,2R)-2-(4-chlorophenyl)-1′-(3-(4-(pyridin-4-yl)piperazine-1-carbonyl)benzyl)spiro[cyclopropane-1,3′-indolin]-2′-one], the EC50 was determined as 1.6 µM.
For `CC1CN(CCNCCN2C(=O)[C@]3(C[C@@H]3c3ccc(Cl)cc3)c3ccccc32)CC(C)O1` (mixture of isomers) [Example 130, (1S,2R) and (1R,2S)-2-(4-chlorophenyl)-1′-(2-(2-(2,6-dimethylmorpholino)ethylamino)ethyl) Spiro[cyclopropane-1,3′-indolin]-2′-one], the EC50 was 1.1 µM.
Take `O=C(NCCN1CCOCC1)c1cccc(CN2C(=O)[C@@]3(C[C@H]3c3ccc(Cl)cc3)c3ccccc32)c1` (racemic) [Example 114, (1R,2S) and (1S,2R)-3-((2-(4-chlorophenyl)-2′-oxospiro[cyclopropane-1,3′-indoline]-1′-yl)methyl)-N-(2-morpholinoethyl)benzamide]: the EC50 is 6.48 µM.
Consider `O=C(c1cccc(CN2C(=O)[C@@]3(C[C@H]3c3ccc(Cl)cc3)c3ccccc32)c1)N1CCOCC1` (racemic) [Example 63, (1R,2S) and (1S,2R)-2-(4-chlorophenyl)-1′-(3-(morpholine-4-carbonyl)benzyl)spiro[cyclopropane-1,3′-indolin]-2′-one], for which the EC50 is 1.54 µM.
The value for `N#Cc1ccc([C@@H]2C[C@]23C(=O)N(Cc2cccc(C(=O)O)c2)c2ccccc23)cc1` (racemic) [Example 17, (1S,2S) and (1R,2R)-3-((2-(4-cyanophenyl)-2′-oxospiro[cyclopropane-1,3′-indoline]-1′-yl)methyl)benzoic acid] was 1.63 µM; that for `CS(=O)(=O)N1CCN(C(=O)c2cccc(CN3C(=O)[C@@]4(C[C@H]4c4ccc(Cl)cc4)c4ccccc43)c2)CC1` (racemic) [Example 115, (1R,2S) and (1S,2R)-2-(4-chlorophenyl)-1′-(3-(4-(methylsulfonyl)piperazine-1-carbonyl)benzyl)spiro[cyclopropane-1,3′-indolin]-2′-one] was 5.14 µM; that for `CS(=O)(=O)NC(=O)c1cccc(N2C(=O)[C@]3(C[C@@H]3c3ccc(Cl)cc3)c3ccccc32)c1` (racemic) [Example 132, (1S,2R) and (1R,2S)-3-(2-(4-chlorophenyl)-2′-oxospiro[cyclopropane-1,3′-indoline]-1′-yl)-N-(methylsulfonyl)benzamide] was 1.55 µM.
Consider `O=C1N(CC2CCOCC2)c2ccccc2[C@@]12C[C@@H]2c1ccc(Cl)cc1` (racemic) [Example 70, (1S,2R) and (1R,2S)-2-(4-chlorophenyl)-1′-((tetrahydro-2 H-pyran-4-yl)methyl)spiro[cyclopropane-1,3′-indolin]-2′-one], for which the EC50 is 1.54 µM.
With `O=C1N(CCN2CCCCC2)c2ccccc2[C@@]12C[C@@H]2c1ccc(Cl)cc1` (racemic) [Example 125, (1S,2R) and (1R,2S)-2-(4-chlorophenyl)-1′-(2-(piperidin-1-yl)ethyl)spiro[cyclopropane-1,3′-indolin]-2′-one], the EC50 came to 1.75 µM.
Regarding `CS(=O)(=O)N1CCC(CN2C(=O)[C@]3(C[C@@H]3c3ccc(Cl)cc3)c3ccccc32)CC1` (racemic) [Example 73, (1S,2R) and (1R,2S)-2-(4-chlorophenyl)-1′-((1-(methylsulfonyl)piperidin-4-yl)methyl) Spiro[cyclopropane-1,3′-indolin]-2′-one], the EC50 was 1.65 µM.
The value for `CS(=O)(=O)c1cc(C(=O)O)cc(N2C(=O)[C@]3(C[C@H]3c3ccc(Cl)cc3)c3ccccc32)c1` (racemic) [Example 93, (1S,2S) and (1R,2R)-3-(2-(4-chlorophenyl)-2′-oxospiro[cyclopropane-1,3′-indoline]-1′-yl)-5-(methylsulfonyl)benzoic acid] was 0.91 µM; that for `O=C(O)c1cccc(CN2C(=O)[C@]3(C[C@@H]3c3ccc(F)cc3)c3ccccc32)c1` (racemic) [Example 24, (1S,2R) and (1R,2S)-3-((-2-(4-fluorophenyl)-2′-oxospiro[cyclopropane-1,3′-indoline]-1′-yl)methyl)benzoic acid] was 5.75 µM.
As for `O=C(c1cccc(N2C(=O)[C@]3(C[C@H]3c3ccc(Cl)cc3)c3ccccc32)c1)N1CCOCC1` (racemic) [Example 85, (1S,2S) and (1R,2R)-2-(4-chlorophenyl)-1′-(3-(morpholine-4-carbonyl)phenyl)spiro [cyclopropane-1,3′-indolin]-2′-one], the concentration for a half-maximal effect (EC50) stood at 0.95 µM.
As to `CCN(CC)CCN1C(=O)[C@]2(C[C@@H]2c2ccc(Cl)cc2)c2ccccc21` (racemic) [Example 71, (1S,2R) and (1R,2S)-2-(4-chlorophenyl)-1′-(2-(diethylamino)ethyl)spiro[cyclopropane-1,3′-indolin]-2′-one], the EC50 was determined as 3.2 µM.
The value for `CC(C)NC(=O)c1cccc(CN2C(=O)[C@@]3(C[C@H]3c3ccc(Cl)cc3)c3ccccc32)c1` (racemic) [Example 61, (1R,2S) and (1S,2R)-3-((2-(4-chlorophenyl)-2′-oxospiro[cyclopropane-1,3′-indoline]-1′-yl)methyl)-N-isopropylbenzamide] was 8.67 µM; that for `O=C(O)c1cc(N2CCOC2=O)cc(N2C(=O)[C@]3(C[C@H]3c3ccc(Cl)cc3)c3ccccc32)c1` (racemic) [Example 92, (1S,2S) and (1R,2R)-3-(2-(4-chlorophenyl)-2′-oxospiro[cyclopropane-1,3′-indoline]-1′-yl)-5-(2-oxooxazolidin-3-yl)benzoic acid] was 0.87 µM; that for `O=C(O)c1cn(CCN2C(=O)[C@]3(C[C@H]3c3ccc(Cl)cc3)c3ccccc32)cn1` (racemic) [Example 82, (1S,2S) and (1R,2R)-1-(2-(2-(4-chlorophenyl)-2′-oxospiro[cyclopropane-1,3′-indoline]-1′-yl)ethyl)-1H-imidazole-4-carboxylic acid] was 4.03 µM.
